What was measured:
Type in all cases: in vivo
barnyardgrass [1] = test: Test Example 1: herbicidal effects in preemergence treatment under submerged conditions; settings: dose 2.52 g/a
In short: (§1)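 Flooded-paddy preemergence assay; EC diluted with water, surface-applied at weed seeding; doses g/a; rice transplanted at 2.5 leaves; 0–5 mortality score after 3 weeks.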

bulrush [2] = test: as above; settings: dose 2.52 g/a
In short: as §1

ducksalad [3] = test: as above; settings: dose 2.52 g/a
In short: as §1

barnyardgrass [4] = test: Test Example 2: herbicidal effects during the vegetation period under submerged conditions; settings: treatment during the vegetation period under submerged conditions; dose 2.52 g/a
In short: (§2)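 Barnyardgrass, bulrush and ducksalad were co-sown in alluvial soil flooded to 4 cm and grown in a greenhouse at 25 to 30° C. At the 1- or 2-leaf stage, water-diluted emulsifiable concentrates went onto the water surface at set doses (g/a). Herbicidal effect was scored three weeks later on a graded scale.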

bulrush [5] = test: as above; settings: treatment during the vegetation period under submerged conditions; dose 2.52 g/a
In short: as §2

ducksalad [6] = test: as above; settings: treatment during the vegetation period under submerged conditions; dose 2.52 g/a
In short: as §2

Italian ryegrass [7] = test: Test Example 3: herbicidal effects in soil treatment
In short: (§3)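 Seeds were sown in sterilized diluvial soil and covered with about 1.5 cm of soil. Compounds, formulated as emulsifiable concentrates and diluted with water, were sprayed evenly over the soil surface at set doses in g/a. Herbicidal effect was scored on a rating scale three weeks later.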

barnyardgrass [8] = test: as above
In short: as §3

common chickweed [9] = test: as above
In short: as §3

common lambsquater [10] = test: as above
In short: as §3

common ragweed [11] = test: as above
In short: as §3

giant foxtail [12] = test: as above
In short: as §3

large crabgrass [13] = test: as above
In short: as §3

redroot pigweed [14] = test: as above
In short: as §3

water foxtail [15] = test: as above
In short: as §3

wild oat [16] = test: as above; settings: dose 6.3 g/a
In short: as §3

Italian ryegrass [17] = test: Test Example 4: herbicidal effect in foliage treatment
In short: (§4)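 Doses are given in grams per are of applied compound, sprayed as water-diluted emulsifiable concentrate onto foliage of 14-day-old plants grown at 25 to 30° C. Herbicidal activity was assessed visually on a rating scale after three weeks.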

barnyardgrass [18] = test: as above
In short: as §4

beadstraw = test: as above
In short: as §4

common chickweed [19] = test: as above
In short: as §4

common lambsquater [20] = test: as above
In short: as §4

common ragweed [21] = test: as above
In short: as §4

giant foxtail [22] = test: as above
In short: as §4

large crabgrass [23] = test: as above
In short: as §4

redroot pigweed [24] = test: as above
In short: as §4

water foxtail [25] = test: as above
In short: as §4

wild oat [26] = test: as above
In short: as §4

transplanted rice = test: Test Example 1: preemergence treatment under submerged conditions, effect on crop; settings: dose 2.52 g/a
In short: as §1

posumbu knotweed [27] = test: Test Example 3: herbicidal effects in soil treatment; settings: dose 3.2 g/a
In short: as §3

posumbu knotweed [28] = test: Test Example 4: herbicidal effect in foliage treatment; settings: dose 3.2 g/a, three weeks after application
In short: as §4

velvetleaf = test: as above; settings: dose 3.2 g/a, three weeks after application
In short: as §4

[29] = dose 6.3 g/a, three weeks after the application
[30] = dose 3.2 g/a, three weeks after application

For `O=C1CCOCCN1Cc1ccccc1NS(=O)(=O)C(F)(F)F` [Compound V-1], the “A: barnyardgrass, herbicidal effect (evaluation scale 0-5)” value (barnyardgrass [1]) was 5 (mortality of 90% or above (nearly complete death)), the “B: bulrush, herbicidal effect (evaluation scale 0-5)” value (“B: bulrush, herbicidal effect” below) (bulrush [2]) was 5 (mortality of 90% or above (nearly complete death)) and the “C: ducksalad, herbicidal effect (evaluation scale 0-5)” value (shortened to “C: ducksalad, herbicidal effect”) (ducksalad [3]) was 5 (mortality of 90% or above (nearly complete death)). For the same compound, the “A: barnyardgrass, herbicidal effect (evaluation scale 0-5)” value (barnyardgrass [4]) was 5 (mortality of 90% or above (nearly complete death)), the “B: bulrush, herbicidal effect” value (bulrush [5]) was 5 (mortality of 90% or above (nearly complete death)) and the “C: ducksalad, herbicidal effect” value (ducksalad [6]) was 5 (mortality of 90% or above (nearly complete death)). For the same compound, the “herbicidal effect, H: Italian ryegrass” value (Italian ryegrass [7]; dose 6.3 g/a) was 3 (mortality of at least 40% and less than 70%), the “herbicidal effect, A: barnyardgrass” value (barnyardgrass [8]; dose 6.3 g/a) was 5 (mortality of 90% or above (nearly complete death)) and the “herbicidal effect, N: common chickweed” value (common chickweed [9]; dose 6.3 g/a) was 5 (mortality of 90% or above (nearly complete death)). The “herbicidal effect, L: common lambsquater” value (common lambsquater [10]; dose 6.3 g/a) was 5 (mortality of 90% or above (nearly complete death)), the “herbicidal effect, J: common ragweed” value (common ragweed [11]; dose 6.3 g/a) was 5 (mortality of 90% or above (nearly complete death)) and the “herbicidal effect, E: giant foxtail” value (giant foxtail [12]; dose 6.3 g/a) was 4 (mortality of at least 70% and less than 90%). The “herbicidal effect, D: large crabgrass” value (large crabgrass [13]; dose 6.3 g/a) was 0 (mortality of less than 5% (almost ineffective)), the “herbicidal effect, K: redroot pigweed” value (redroot pigweed [14]; dose 6.3 g/a) was 4 (mortality of at least 70% and less than 90%) and the “herbicidal effect, G: water foxtail” value (water foxtail [15]; dose 6.3 g/a) was 5 (mortality of 90% or above (nearly complete death)). The “herbicidal effect, F: wild oat” value (wild oat [16]) was 3 (mortality of at least 40% and less than 70%), the “H: Italian ryegrass, herbicidal effect” value (Italian ryegrass [17]; [29]) was 3 (mortality of at least 40% and less than 70%) and the “A: barnyardgrass, herbicidal effect” value (barnyardgrass [18]; [29]) was 5 (mortality of 90% or above (nearly complete death)). For the same compound, the “O: beadstraw, herbicidal effect” value (beadstraw; [29]) was 4 (mortality of at least 70% and less than 90%), the “N: common chickweed, herbicidal effect” value (common chickweed [19]; [29]) was 4 (mortality of at least 70% and less than 90%) and the “L: common lambsquater, herbicidal effect” value (common lambsquater [20]; [29]) was 4 (mortality of at least 70% and less than 90%). For the same compound, the “J: common ragweed, herbicidal effect” value (common ragweed [21]; [29]) was 5 (mortality of 90% or above (nearly complete death)), the “E: giant foxtail, herbicidal effect” value (giant foxtail [22]; [29]) was 5 (mortality of 90% or above (nearly complete death)) and the “D: large crabgrass, herbicidal effect” value (large crabgrass [23]; [29]) was 4 (mortality of at least 70% and less than 90%). The “K: redroot pigweed, herbicidal effect” value (redroot pigweed [24]; [29]) was 1 (mortality of at least 5% and less than 20%), the “G: water foxtail, herbicidal effect” value (water foxtail [25]; [29]) was 5 (mortality of 90% or above (nearly complete death)) and the “F: wild oat, herbicidal effect” value (wild oat [26]; [29]) was 0 (mortality of less than 5% (almost ineffective)).
For `CCOC(=O)N(c1ccccc1CN1COC(c2ccccc2)CC1=O)S(=O)(=O)C(F)(F)F` (stereo not drawn) [II-10], the “A: barnyardgrass, herbicidal effect (evaluation scale 0-5)” value (barnyardgrass [1]) was 5 (mortality of 90% or above (nearly complete death)), the “B: bulrush, herbicidal effect” value (bulrush [2]) was 5 (mortality of 90% or above (nearly complete death)) and the “C: ducksalad, herbicidal effect” value (ducksalad [3]) was 5 (mortality of 90% or above (nearly complete death)). For the same compound, the “a: transplanted rice, effect on crop (evaluation scale 0-5)” value (transplanted rice) was 0 (mortality of less than 5% (almost ineffective)), the “A: barnyardgrass, herbicidal effect (evaluation scale 0-5)” value (barnyardgrass [4]) was 4 (mortality of at least 70% and less than 90%) and the “B: bulrush, herbicidal effect” value (bulrush [5]) was 5 (mortality of 90% or above (nearly complete death)). For the same compound, the “C: ducksalad, herbicidal effect” value (ducksalad [6]) was 5 (mortality of 90% or above (nearly complete death)), the “H: Italian ryegrass, herbicidal effect (evaluation scale 0-5)” value (Italian ryegrass [7]; dose 3.2 g/a) was 2 (mortality of at least 20% and less than 40%) and the “A: barnyardgrass, herbicidal effect (evaluation scale 0-5)” value (barnyardgrass [8]; dose 3.2 g/a) was 4 (mortality of at least 70% and less than 90%). For the same compound, the “N: common chickweed, herbicidal effect (evaluation scale 0-5)” value (common chickweed [9]; dose 3.2 g/a) was 5 (mortality of 90% or above (nearly complete death)), the “L: common lambsquater, herbicidal effect (evaluation scale 0-5)” value (common lambsquater [10]; dose 3.2 g/a) was 3 (mortality of at least 40% and less than 70%) and the “J: common ragweed, herbicidal effect (evaluation scale 0-5)” value (common ragweed [11]; dose 3.2 g/a) was 0 (mortality of less than 5% (almost ineffective)). For the same compound, the “E: giant foxtail, herbicidal effect (evaluation scale 0-5)” value (giant foxtail [12]; dose 3.2 g/a) was 4 (mortality of at least 70% and less than 90%), the “D: large crabgrass, herbicidal effect (evaluation scale 0-5)” value (large crabgrass [13]; dose 3.2 g/a) was 4 (mortality of at least 70% and less than 90%) and the “M: posumbu knotweed, herbicidal effect (evaluation scale 0-5)” value (posumbu knotweed [27]) was 0 (mortality of less than 5% (almost ineffective)). For the same compound, the “K: redroot pigweed, herbicidal effect (evaluation scale 0-5)” value (redroot pigweed [14]; dose 3.2 g/a) was 0 (mortality of less than 5% (almost ineffective)), the “G: water foxtail, herbicidal effect (evaluation scale 0-5)” value (water foxtail [15]; dose 3.2 g/a) was 5 (mortality of 90% or above (nearly complete death)) and the “H: Italian ryegrass, herbicidal effect” value (Italian ryegrass [17]; [30]) was 1 (mortality of at least 5% and less than 20%). The “A: barnyardgrass, herbicidal effect” value (barnyardgrass [18]; [30]) was 4 (mortality of at least 70% and less than 90%), the “O: beadstraw, herbicidal effect” value (beadstraw; [30]) was 3 (mortality of at least 40% and less than 70%) and the “N: common chickweed, herbicidal effect” value (common chickweed [19]; [30]) was 4 (mortality of at least 70% and less than 90%). For the same compound, the “L: common lambsquater, herbicidal effect” value (common lambsquater [20]; [30]) was 3 (mortality of at least 40% and less than 70%), the “J: common ragweed, herbicidal effect” value (common ragweed [21]; [30]) was 3 (mortality of at least 40% and less than 70%) and the “E: giant foxtail, herbicidal effect” value (giant foxtail [22]; [30]) was 3 (mortality of at least 40% and less than 70%). The “D: large crabgrass, herbicidal effect” value (large crabgrass [23]; [30]) was 0 (mortality of less than 5% (almost ineffective)), the “M: posumbu knotweed, herbicidal effect” value (posumbu knotweed [28]) was 4 (mortality of at least 70% and less than 90%) and the “K: redroot pigweed, herbicidal effect” value (redroot pigweed [24]; [30]) was 0 (mortality of less than 5% (almost ineffective)). The “I: velvetleaf, herbicidal effect” value (velvetleaf) was 4 (mortality of at least 70% and less than 90%), the “G: water foxtail, herbicidal effect” value (water foxtail [25]; [30]) was 4 (mortality of at least 70% and less than 90%) and the “F: wild oat, herbicidal effect” value (wild oat [26]; [30]) was 0 (mortality of less than 5% (almost ineffective)).

Source: patent US20120029187A1, “HALOALKYLSULFONANILIDE DERIVATIVE” (Nissan Chemical Industries, Ltd., priority 2009, published 2012)
